Data as given in patent US20030118514A1, “Compositions for inhalation” (Glaxo Wellcome Inc., priority 1998, published 2003).
Where two headings read alike, the source gives them in different places.

Key:
[1] = Fine particle fraction of salbutamol sulphate blended with Lactochem lactose (Example 7); assay type: physicochemical; details: after blending with Lactochem lactose
[2] = Mass median diameter of salbutamol sulphate particles; assay type: physicochemical

| fine particle fraction (<6.4 μm) [1] [% recovered dose] | mass median diameter ([2]; listed as elongated crystals (needle shaped) of salbutamol sulphate) [μm] | mass median diameter [2] [μm] | Substance |
| --- | --- | --- | --- |
| 22.8 | 5.49 |  | salbutamol sulphate [recrystallised salbutamol sulphate] |
| 10.8 |  | 4.79 | salbutamol sulphate [micronised salbutamol sulphate] |
